Measurements as given in the supplement of paper PMC10307832.

What was measured:
Experiment in all cases: relative viability (nuclei count vs DMSO), 5 days (fraction); higher = more cells survive
Avagacestat + Tozasertib = compound: NC(=O)[C@@H](CCC(F)(F)F)N(Cc1ccc(-c2ncon2)cc1F)S(=O)(=O)c1ccc(Cl)cc1 [Avagacestat] + Cc1cc(Nc2cc(N3CCN(C)CC3)nc(Sc3ccc(NC(=O)C4CC4)cc3)n2)n[nH]1 [Tozasertib] (partner 0.1 µM)
In short: (§1)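 Medians of duplicate plates are given as relative viability. That measure is the nuclei count in treated wells divided by the count in vehicle wells. Counts were taken on 4× images of lung cancer cell lines in 1536-well plates, 5 days after pin-tool dosing the day after seeding with one drug alone or a fixed anchor-drug dose plus five library-drug doses (not always all listed) in √10 steps.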

Avagacestat + Foretinib = compound: NC(=O)[C@@H](CCC(F)(F)F)N(Cc1ccc(-c2ncon2)cc1F)S(=O)(=O)c1ccc(Cl)cc1 [Avagacestat] + COc1cc2c(Oc3ccc(NC(=O)C4(C(=O)Nc5ccc(F)cc5)CC4)cc3F)ccnc2cc1OCCCN1CCOCC1 [Foretinib] (partner 0.25 µM)
In short: as §1

Avagacestat + Luminespib = compound: NC(=O)[C@@H](CCC(F)(F)F)N(Cc1ccc(-c2ncon2)cc1F)S(=O)(=O)c1ccc(Cl)cc1 [Avagacestat] + CCNC(=O)c1noc(-c2cc(C(C)C)c(O)cc2O)c1-c1ccc(CN2CCOCC2)cc1 [Luminespib] (partner 0.01 µM)
In short: as §1

Avagacestat + AZD7762 = compound: NC(=O)[C@@H](CCC(F)(F)F)N(Cc1ccc(-c2ncon2)cc1F)S(=O)(=O)c1ccc(Cl)cc1 [Avagacestat] + NC(=O)Nc1cc(-c2cccc(F)c2)sc1C(=O)N[C@H]1CCCNC1 [AZD7762] (partner 0.2 µM)
In short: as §1

Row | Cell Line | relative viability (Avagacestat + Tozasertib; first compound 0.08 µM) | relative viability (Avagacestat + Tozasertib; first compound 0.253 µM) | relative viability (Avagacestat + Tozasertib; first compound 0.8 µM) | relative viability (Avagacestat + Tozasertib; first compound 2.53 µM) | relative viability (Avagacestat + Tozasertib; first compound 8 µM) | relative viability (Avagacestat + Foretinib; first compound 0.08 µM) | relative viability (Avagacestat + Foretinib; first compound 0.253 µM) | relative viability (Avagacestat + Foretinib; first compound 0.8 µM) | relative viability (Avagacestat + Foretinib; first compound 2.53 µM) | relative viability (Avagacestat + Foretinib; first compound 8 µM) | relative viability (Avagacestat + Luminespib; first compound 0.08 µM) | relative viability (Avagacestat + Luminespib; first compound 0.253 µM) | relative viability (Avagacestat + Luminespib; first compound 0.8 µM) | relative viability (Avagacestat + Luminespib; first compound 2.53 µM) | relative viability (Avagacestat + Luminespib; first compound 8 µM) | relative viability (Avagacestat + AZD7762; first compound 0.08 µM) | relative viability (Avagacestat + AZD7762; first compound 0.253 µM) | relative viability (Avagacestat + AZD7762; first compound 0.8 µM) | relative viability (Avagacestat + AZD7762; first compound 2.53 µM) | relative viability (Avagacestat + AZD7762; first compound 8 µM)
1 | NCI-H2170 | 0.807 | 0.782 | 0.812 | 0.72 | 0.646 | 1.02 | 1.12 | 0.988 | 0.899 | 1.01 | 0.721 | 0.588 | 0.817 | 0.399 | 0.754 | 0.968 | 1.14 | 0.928 | 0.793 | 0.877
2 | NCI-H2342 | 0.593 | 0.48 | 0.57 | 0.493 | 0.527 | 1.22 | 1.05 | 0.924 | 1.02 | 0.939 | 0.742 | 0.703 | 0.648 | 0.709 | 0.663 | 0.479 | 0.536 | 0.589 | 0.499 | 0.438
3 | NCI-H2347 | 0.452 | 0.52 | 0.526 | 0.519 | 0.503 | 1.22 | 1.07 | 0.931 | 0.842 | 0.977 | 0.633 | 0.379 | 0.608 | 0.512 | 0.311 | 0.707 | 0.783 | 0.743 | 0.696 | 0.587
4 | NCI-H2405 | 0.718 | 0.751 | 0.747 | 0.714 | 0.661 | 1.04 | 1.03 | 0.998 | 0.938 | 0.927 | 0.638 | 0.856 | 0.58 | 0.665 | 0.466 | 0.895 | 0.839 | 0.73 | 0.701 | 0.754
5 | NCI-H3122 | 0.446 | 0.517 | 0.419 | – | 0.384 | 0.945 | 1 | 0.992 | 0.964 | 0.991 | 0.0934 | 0.101 | 0.074 | 0.0983 | 0.11 | 1.09 | 1.11 | 0.997 | 0.908 | 0.964
6 | PC-3 [JPC-3] | 1.01 | 0.99 | 1.08 | 0.943 | 0.826 | 1.19 | 1.09 | 1.15 | 1.02 | 1.01 | 0.677 | 0.81 | 0.785 | 0.671 | 0.628 | 0.983 | 0.972 | 1.19 | 0.842 | 0.775
7 | PC-14 | 0.733 | 0.859 | 0.925 | 0.692 | 0.633 | 1.1 | 1.08 | 1.1 | 0.956 | 0.817 | 0.151 | 0.162 | 0.162 | – | 0.176 | 0.53 | 0.568 | 0.581 | 0.39 | 0.392
8 | RERF-LC-KJ | 0.5 | 0.471 | 0.466 | 0.418 | 0.379 | 0.987 | 1.07 | 0.993 | 0.859 | 0.842 | 1.72 | 1.39 | 1.36 | 1.35 | 1.13 | 1.02 | 1.14 | 1.24 | 0.929 | 0.751
9 | SW 900 | 0.726 | 0.637 | 0.578 | 0.487 | 0.353 | 1.38 | 1.32 | 0.967 | 0.612 | 1.2 | 0.176 | 0.168 | 0.173 | 0.153 | 0.177 | 0.847 | 0.807 | 0.606 | 0.571 | 0.466
